Data published in publication PMC7329766, “Synthesis of the Thomsen-Friedenreich-antigen (TF-antigen) and binding of Galectin-3 to TF-antigen presenting neo-glycoproteins” (Glycoconjugate Journal, 2020).

Tests used:
human galectin-3 (Gal-3) = biological target: T1, human galectin-3 (Gal-3) (Homo sapiens, UniProt P17931); assay: competitive enzyme-linked lectin assay, inhibition of Gal-3 binding to immobilized asialofetuin
T1 construct: gene LGALS3; N-terminal His6-tag (kept, used for detection), expressed in E. coli Rosetta (DE3) pLysS, IMAC purified
T1 sequence (P17931 whole entry): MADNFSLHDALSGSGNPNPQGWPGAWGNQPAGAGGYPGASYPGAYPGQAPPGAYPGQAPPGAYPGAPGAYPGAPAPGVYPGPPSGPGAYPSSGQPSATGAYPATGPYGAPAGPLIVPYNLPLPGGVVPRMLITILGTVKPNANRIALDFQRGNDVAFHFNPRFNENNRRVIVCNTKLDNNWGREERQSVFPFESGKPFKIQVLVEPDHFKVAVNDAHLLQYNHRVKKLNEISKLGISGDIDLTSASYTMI

[1] = substrate: OC[C@H]1O[C@H](F)[C@H](O)[C@@H](O)[C@H]1O; assay: discontinuous HPLC assay, glycosynthase reaction; format: biochemical, Niallia circulans; settings: donor substrate, acceptor GalNAc(α1-EG3-azide fixed at 5 mM), 50 mM HEPES pH 7.2, 30 °C, text gives 0.22 mM for the donor, Fig. 2 legend prints 0.22 M and assigns it to panel b (acceptor)

IC50 (human galectin-3 (Gal-3)) [µM] | Molecule | Km [1] [µM]
1560 ± 92.6 | CC(=O)N[C@H]1[C@@H](OCCOCCOCCN=[N+]=[N-])O[C@H](CO)[C@H](O)[C@@H]1O[C@@H]1O[C@H](CO)[C@H](O)[C@H](O)[C@H]1O [compound 6, TF-antigen-azide] | 
 | BgaC (β-galactosidase) (Niallia circulans; E233G) (protein, recombinant, plasmid pETDuet-1, E. coli BL21 (DE3), IMAC purified) MSQLTYDDSFLLDGKEIRLLSGAMHYFRTVPEYWEDRLLKLKACGFNTVETYVAWNLHEPEEGQFVFEGIADIVRFIKTAEKVGLHVIVRPGPFICAEWEFGGFPYWLLTVPNIKLRCFNQPYLEKVDAYFDVLFERLRPLLSSNGGPIIALQIENEYGSFGNDQKYLQYLRDGIKKRVGNELLFTSDGPEPSMLSGGMIEGIFETVNFGSRAESAFAQLKQYQPNAPLMCMGFWHGWFDHWGEEHHTRSAESVVETLEEILKQNGSVNFYMAHGGTNFGFYNGANHNETDYQPTITSYDYDGLLTESGDVTEKFYAVRKVFEKYVDLPELNLPAPIPKRLFGKVKFTEHAGLLDSLHRISTPQKSEAPLPMEKYGQAYGFIVYETTIKGAYGKQALTVQDIHDRGQVYVNGEYVGIVERNRGCSRLVVELTEEESKLQIIVENMGRINYGPFVVDYKGITEGVRLGNQFLFDWTVYPLPLKDLSSLEFTADEVKENFPYFHKGILTVDKAADTFIDLSEWTKGVVFVNGHHLGRYWEIGPQQTLYVPAPFLQEGENEIILLELHKHHQSVTFVDTPVLGAIPKTP | 220
